How the values were obtained:
Assay in all cases: relative viability (nuclei count vs DMSO), 5 days (fraction); higher = more cells survive
Carboplatin + Pemetrexed = compound: C1CC(C1)(C(=O)O)C(=O)O.[NH2-].[NH2-].[Pt+2] [Carboplatin] + Nc1nc2[nH]cc(CCc3ccc(C(=O)N[C@@H](CCC(=O)O)C(=O)O)cc3)c2c(=O)[nH]1 [Pemetrexed] (partner 0.2 µM)
Procedure, shortened: (§1)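 Relative viability divides the nuclei count in treated wells by that in vehicle wells. Lung cancer cell lines were seeded in 1536-well plates, dosed by pin tool the next day, and fixed and stained after 5 days in one step with final 0.05% Triton X-100, 1% formaldehyde and 1 ug/ml Hoechst. Dosing was a single drug or a fixed anchor-drug dose plus five library-drug doses (not always all listed) in √10 steps, and values are medians of duplicate plates imaged at 4×.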

Carboplatin + Vorinostat = compound: C1CC(C1)(C(=O)O)C(=O)O.[NH2-].[NH2-].[Pt+2] [Carboplatin] + O=C(CCCCCCC(=O)Nc1ccccc1)NO [Vorinostat] (partner 1 µM)
Procedure, shortened: as §1

MLN4924 + Tozasertib = compound: NS(=O)(=O)OC[C@@H]1C[C@@H](n2ccc3c(N[C@H]4CCc5ccccc54)ncnc32)C[C@@H]1O [MLN4924] + Cc1cc(Nc2cc(N3CCN(C)CC3)nc(Sc3ccc(NC(=O)C4CC4)cc3)n2)n[nH]1 [Tozasertib] (partner 0.1 µM)
Procedure, shortened: as §1

MLN4924 + Olaparib = compound: NS(=O)(=O)OC[C@@H]1C[C@@H](n2ccc3c(N[C@H]4CCc5ccccc54)ncnc32)C[C@@H]1O [MLN4924] + O=C(c1cc(Cc2n[nH]c(=O)c3ccccc23)ccc1F)N1CCN(C(=O)C2CC2)CC1 [Olaparib] (partner 8 µM)
Procedure, shortened: as §1

Cell Line	relative viability (Carboplatin + Pemetrexed; first compound 0.08 µM)	relative viability (Carboplatin + Pemetrexed; first compound 0.253 µM)	relative viability (Carboplatin + Pemetrexed; first compound 0.8 µM)	relative viability (Carboplatin + Pemetrexed; first compound 2.53 µM)	relative viability (Carboplatin + Pemetrexed; first compound 8 µM)	relative viability (Carboplatin + Vorinostat; first compound 0.08 µM)	relative viability (Carboplatin + Vorinostat; first compound 0.253 µM)	relative viability (Carboplatin + Vorinostat; first compound 0.8 µM)	relative viability (Carboplatin + Vorinostat; first compound 2.53 µM)	relative viability (Carboplatin + Vorinostat; first compound 8 µM)	relative viability (MLN4924 + Tozasertib; first compound 0.04 µM)	relative viability (MLN4924 + Tozasertib; first compound 0.1265 µM)	relative viability (MLN4924 + Tozasertib; first compound 0.4 µM)	relative viability (MLN4924 + Tozasertib; first compound 1.265 µM)	relative viability (MLN4924 + Tozasertib; first compound 4 µM)	relative viability (MLN4924 + Olaparib; first compound 0.04 µM)	relative viability (MLN4924 + Olaparib; first compound 0.1265 µM)	relative viability (MLN4924 + Olaparib; first compound 0.4 µM)	relative viability (MLN4924 + Olaparib; first compound 1.265 µM)	relative viability (MLN4924 + Olaparib; first compound 4 µM)
NCI-H1648	0.747	0.737	0.733	0.587	0.65	0.527	0.544	0.434	0.351	0.357	0.417	0.164	0.247	0.203	0.279	0.535	0.398	0.382	0.253	0.274
NCI-H358	0.179	0.21	0.188	0.16	0.174	0.735	0.668	0.681	0.664	0.53	0.108	0.0992	0.0886	0.0878	0.0989	0.537	0.494	0.312	0.0861	0.105
NCI-H1944	0.644	0.557	0.643	0.526	0.485	0.533	0.61	0.59	0.523	0.368	0.233	0.226	0.235	0.159	0.117	0.405	0.296	0.304	0.162	0.139
NCI-H1755	0.436	0.371	0.437	0.443	0.386	0.793	0.834	0.874	0.722	0.685	0.529	0.411	0.291	0.208	0.209	0.859	0.544	0.491	0.254	0.171
A-427	1.03	1.01	0.942	0.897	1.05	0.865	0.854	0.864	0.864	0.829	0.168	0.164	0.128	0.131	0.133	0.467	0.335	0.296	0.24	0.241
SW 1573	0.92	0.924	1.18	1.01	0.569	0.739	1.01	0.865	0.817	0.396	0.235	0.207	0.0978	0.0941	0.0688	0.486	0.303	0.108	0.0465	0.07
PC-14	0.127	0.131	0.143	0.11	0.0992	0.862	0.783	0.582	0.234	0.142	0.592	0.569	0.605	0.177	0.0608	0.188	0.129	0.0764	0.0624	0.0504
LOU-NH91	0.348	0.378	0.372	0.381	0.378	1.03	0.937	0.949	0.894	0.734	0.641	0.689	0.502	0.336	0.342	0.887	0.844	0.724	0.47	0.48
BEN	1.02	0.931	0.772	0.759	0.738	0.658	0.611	0.598	0.625	0.581	0.411	0.308	0.35	0.228	0.222	0.662	0.328	0.264	0.189	0.207
NCI-H2085	1.03	0.846	0.974	0.948	0.899	0.803	0.764	0.839	0.761	0.711	0.855	0.894	0.827	0.78	0.48	0.837	0.747	0.868	0.485	0.363
LCLC-103H	0.448	0.479	0.468	0.517	0.474	0.804	0.785	0.72	0.768	0.692	0.493	0.533	0.364	0.168	0.137	0.717	0.615	0.665	0.292	0.293
NCI-H661	0.942	0.858	0.903	0.916	0.839	0.82	0.785	0.733	0.777	0.622	0.343	0.329	0.359	0.338	0.375	0.614	0.575	0.39	0.31	0.372
H3255	0.589	0.531	0.58	0.529	0.563	0.777	0.815	0.776	0.72	0.572	0.671	0.374	0.339	0.236	0.286	0.481	0.372	0.297	0.253	0.268
EMC-BAC-2	0.426	0.42	0.435	0.418	0.414	0.664	0.416	0.616	0.536	0.331	0.254	0.254	0.208	0.212	0.239	0.397	0.286	0.225	0.214	0.241
NCI-H1666	0.876	0.857	0.845	0.846	0.819	1.09	0.966	1.04	0.921	0.665	0.56	0.635	0.447	0.266	0.27	0.774	0.691	0.657	0.468	0.388
HCC-366	0.156	0.153	0.164	0.18	0.145	0.451	0.311	0.317	0.29	0.114	0.151	0.173	0.159	0.0404	0.0333	0.341	0.352	0.272	0.0846	0.0262

Reference: the supplement of paper PMC10307832
